In patent publication US20120328696A1, “ANTI-PARKINSONIAN COMPOUND ACETYLSALICYLIC ACID MALTOL ESTER” (Hutecs Korea Pharmaceutical Co., Ltd., priority 2008, published 2012):

Experiments:
[1] = test system: tumor necrosis factor (TNF)-α; assay: TNF-α expression after MA (western blot); type: in vivo; details: p.o.; AME 50, EBS 20, rottlerin 20 mg/kg; MA 8 mg/kg i.p. x4; GPx-1 (+/+) and (−/−) mice
Method: The mice received four times of MA (8 mg/kg, ip) or saline as a 2 hr-time interval. Chemicals (AME, EBS, and PKC inhibitors) were administrated for 5 consecutive days (twice daily), and were given 2 times at 4 hr and 30 min before the first MA injection as shown in the experimental schedule. Animals were sacrificed at 4 hrs and 3 days after the final MA administration.
The western blot assays was performed as described previously (Kim et al., 2003). Tissues were homogenized in lysis buffer, containing 200 mM Tris HCl (pH 6.8), 1% SDS, 5 mM EGTA (ethylene glycol tetraacetic acid), 5 mM EDTA (ethylenediaminetetraacetic acid), 10% glycerol, 1× phosphatase inhibitor cocktail I, 1× protease inhibitor cocktail. Lysate was centrifuged at 12,000×g for 30 min and supernatant fraction was used for Western blot analysis. Proteins (20-50 ug/lane) were separated by 6%, 8%, 10% or 15% sodium dodecyl sulfate-polyacrylamide gel electrophoresis and transferred onto the PVDF membranes. Following transfer, the membranes were preincubated with 5% non-fat milk and incubated overnight at 4° C. with primary antibody against β-actin (1:50000, Sigma, St. Louis, Mo., USA), TH (1:5000, Chemicon), TH phosphor-Ser 19 (1:1000, Chemicon,), TH phosphor-Ser 31 (1:500, Chemicon), TH phosphor-Ser 40 (1:500, Chemicon), F4/80 (1:500, Serotec), GPx1 (1:2500, AbFrontier), PKC (1:5000, Santa Cruz biotechnology, Santa Cruz, Calif., USA), p53 (1:5000, Cell signaling, Beverly, Mass., USA), MDM2 (1:1000, BD Pharmingen, San Jose, Calif., USA), MDM2 phospho-Ser 166 (1:1000, cell signaling), BDNF (1:500, Chemicon), GDNF (1:250, Santa Cruz), COX-2 (1:2000, Cayman, Ann Arbor, MC, USA), IL-6 (1:2000, Abcam, Cambridge, Mass., USA), TNF-a (1:1000, R&D Systems, Mckinley place NE, NM, USA), IFN-γ (1:500, Chemicon) or Iba-1 (1:500, Wako, Osaka, Japan). And then, membranes were incubated with HRP-conjugated secondary anti-rabbit IgG (1:1000, GE healthcare, Piscataway, N.J., USA), anti-mouse IgG (1:1000, Sigma) or anti-goat IgG (1:1000, Sigma) for 2 h. […]

[2] = test system: C57BL/6 mice; assay: Locomotor activity after MPTP; type: in vivo; details: AME 25 mg/kg p.o.; MPTP 25 mg/kg i.p. once a day for 7 days; 3 days after final MPTP
Method: (§1) AME (25 mg/kg, p.o) administration was started 4 days (twice daily) before the first injection of MPTP and continued for 7 consecutive days (once a day). MPTP was injected (25 mg/kg, i.p) once a day 1 h after AME treatment for consecutive 7 days.
Locomotor activity measured for 30 min 3 days after the last MPTP administration using an automated video-tracking system (Noldus Information Technology, Wagenin, The Netherlands). Eight test boxes (40×40×30 cm high) were operated simultaneously by an IBM computer. Animals were studied individually during locomotion in each test box, where they were adapted for 5 min before starting the experiment. […] The distance traveled in cm by the animals in horizontal locomotor activity was analyzed. Data were collected and analyzed between 09:00 and 17:00 h (Kim et al., 2001).

[3] = test system: C57BL/6 mice; assay: Rota-rod test after MPTP; type: in vivo; details: AME 25 mg/kg p.o.; MPTP 25 mg/kg i.p. once a day for 7 days; 3 days after final MPTP
Method: as §1
The apparatus (Ugo Basile model 7650) consisted of a base platform and a rotating rod with a nonslippery surface. The rod was placed at a height of 15 cm from the base. The rod, 30 cm in length, was divided into 5 equal sections by 6 opaque disks (so that the subjects cannot be distracted by one another). To assess motor performance, the mice were first trained on the apparatus 2 minutes at a rate 4 r.p.m. per 30 s prior to the test. The test was performed 30 minutes after training and an accelerating paradigm was applied at a rate 4 r.p.m. per 30 s, starting from 4 r.p.m. to a maximum speed of 40 r.p.m., then the rotation speed was kept constant at 40 r.p.m. for a maximum of 300 s. The duration for which the animal could maintain balance on the rotating drum was measured as the rotarod latency, with a maximal cut-off time of 300 s.

[4] = test system: tyrosine hydroxylase; assay: Striatal and nigral TH-like immunoreactivity after MPTP (immunocytochemistry); type: in vivo, mice; details: AME 25 mg/kg p.o., MPTP 25 mg/kg i.p. x7 days
Method: as §1
Animals were sacrificed at 3 days after final MPTP-treatment. They were anesthetized with 60% urethane and perfused transcardially with 200 ml of 50 mM phosphate buffered saline (PBS), followed by 50 ml of paraformaldehyde in PBS. The brain were fixed at 4° C. for 24 h in the same fixative and then cryoprotected in 30% sucrose. The brains were sectioned on a horizontal sliding microstome into 35 μm transverse free-floating sections. The immunocytochemistry was performed as described previously (Kim et al., 2000a; Kim et al., 2000b). Briefly, prior to incubation with the primary antibodies, sections were preincubated with 0.3% hydrogen peroxide in PBS for 30 min (to block endogenous peroxidase activity), then in PBS containing 0.4% Triton X-100 for 20 min and 1% normal serum for 20 min. […] The quantitative analyses were performed using a computer-based image analysis system (Optimas version 6.2; Neurolucida Program) (Kim et al., 1999).

[5] = Kim et al., 1997a; cited from earlier work
[6] = in vitro; Han et al., 1994; cited from earlier work
[7] = Kim et al., 1997b; cited from earlier work

SMILES	effect on MA-induced increase in TNF-α expression [1]	effect on MPTP-induced hypolocomotor activity [2]	effect on MPTP-induced impairment in rota-rod performance [3]	effect on MPTP-induced decrease in striatal TH-IR ([4]; striatum)	effect on MPTP-induced decrease in substantia nigra TH-IR ([4]; substantia nigra)	gastrointestinal damage [5]	antioxidative efficacy [6]	neuroexcitotoxicity [7]
O=c1c2ccccc2[se]n1-c1ccccc1 [EBS, 2-phenyl-1,2-benzisoselenazol-3(2H)-one]	significantly and consistently attenuating effects							
CC(=O)Oc1ccccc1C(=O)Oc1c(C)occc1=O [AME, 3-(2-methyl-4-pyronyl)-2-acetyloxybenzoate]	significantly and consistently attenuating effects	significant attenuated	significantly attenuated	significantly attenuated these decreases in TH-IR	significantly attenuated these decreases in TH-IR	negligible gastrointestinal damage	antioxidative efficacy in vitro	attenuates neuroexcitotoxicity
CC(=O)c1c(O)c(C)c(O)c(Cc2c(O)c3c(c(C(=O)/C=C/c4ccccc4)c2O)OC(C)(C)C=C3)c1O [rottlerin]	significantly and consistently attenuating effects							
